From patent US8765779B2, “Tricyclic derivatives and their pharmaceutical use and compositions” (Cephalon, Inc., priority 2009, dated 2014)
Structures can show the parent of a compound that is named as a salt.

Biological target: T1, human 5-HT6 receptor (Homo sapiens, UniProt P50406)
T1 construct: host or cells: CHO-K1 cells, stably transfected; membranes prepared in house
Experiment: Human 5-HT6 Receptor Binding Assay ([3H]LSD displacement, scintillation beads)
Details: membranes of CHO-K1 cells with recombinant human 5-HT6, 4 nM [3H]LSD; Table 1, class symbols; read-out: h5-HT6 (Ki)

T1 sequence (P50406 whole entry): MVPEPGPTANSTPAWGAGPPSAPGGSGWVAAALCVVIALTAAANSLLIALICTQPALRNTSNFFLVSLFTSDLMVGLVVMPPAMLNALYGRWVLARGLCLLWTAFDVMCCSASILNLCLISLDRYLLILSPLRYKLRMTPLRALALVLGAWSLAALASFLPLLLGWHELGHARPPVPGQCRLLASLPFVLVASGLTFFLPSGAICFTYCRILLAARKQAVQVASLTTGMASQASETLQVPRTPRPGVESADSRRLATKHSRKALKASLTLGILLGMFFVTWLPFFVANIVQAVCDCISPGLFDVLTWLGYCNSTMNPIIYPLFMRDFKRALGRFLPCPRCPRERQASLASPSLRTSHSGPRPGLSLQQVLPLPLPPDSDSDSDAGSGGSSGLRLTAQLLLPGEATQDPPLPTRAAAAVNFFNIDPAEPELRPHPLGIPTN

First: COc1cc(S(=O)(=O)c2ccc3c4c(oc3c2)CNCC4(C)C)c[n+]([O-])c1 [Example 450]
Second: COc1cccc(S(=O)(=O)c2ccc3c4c(oc3c2)C(C)(C)NCC4)c1 [Example 16, 7-[(3-methoxyphenyl)sulfonyl]-1,1-dimethyl-1,2,3,4-tetrahydro[1]benzofuro[2,3-c]pyridine]
The Ki of the first is higher: greater than 1000 nM for the first, less than 500 nM for the second. The second binds more tightly here.

`CC12CCNCC1Oc1ccc(OS(=O)(=O)c3ccc(-n4cccn4)cc3)cc12` (centres unmarked) [Example 776] and `CC12CCNCC1Oc1ccc(OS(=O)(=O)c3cccc(Cl)c3)cc12` (centres unmarked) [Example 762] cannot be ordered by Ki: greater than 1000 nM for the first, greater than 1000 nM for the second.

`CC(C)Oc1cccc(S(=O)(=O)c2ccc3c4c(oc3c2)C(C)(C(F)F)NCC4)c1` (single isomer, unassigned) [Example 34, 1-(difluoromethyl)-1-methyl-7-{[3-(propan-2-yloxy)phenyl]sulfonyl}-1,2,3,4-tetrahydro[1]benzofuro[2,3-c]pyridine] and `CC1(C(F)(F)F)NCCc2c1oc1cc(S(=O)(=O)c3cccc(F)c3)ccc21` (racemic) [Example 37, 7-[(3-fluorophenyl)sulfonyl]-1-methyl-1-(trifluoromethyl)-1,2,3,4-tetrahydro[1]benzofuro[2,3-c]pyridine] cannot be ordered by Ki: less than 500 nM for the first, less than 500 nM for the second.

`O=S(=O)(c1ccc2c(c1)OCCO2)c1ccc2oc3c(c2c1)CCNC3` [Example 247] and `O=S(=O)(c1ccc2c3c(oc2c1)CNCC3)c1cccc2c1OCCO2` [Example 467] cannot be ordered by Ki: less than 500 nM for the first, less than 500 nM for the second.

First: O=[N+]([O-])c1ccc(S(=O)(=O)Oc2ccc3c(c2)OC2CNCCC32)cc1 (centres unmarked) [Example 688]
Second: Cc1ccc(S(=O)(=O)Oc2ccc3c(c2)OC2CNCCC32)cc1 (centres unmarked) [Example 642]
The Ki of the first is higher: 500 to 1000 nM for the first, less than 500 nM for the second. The second binds more tightly here.

`Ic1ccc2c3c([nH]c2c1)C1(CCCOC1)NCC3` (stereo not drawn) [Example 547, 7-Iodo-2,3,4,5′,6′,9-hexahydro-4′H-spiro[beta-carboline-1,3′-pyran]trifluoroacetate] and `O=S(=O)(c1cccc(F)c1)c1ccc2c3c(oc2c1)C1(CCOC1)NCC3` (single isomer, unassigned) [Example 53, 7-[(3-fluorophenyl)sulfonyl]-3,4,4′,5′-tetrahydro-2H-spiro[1-benzofuro[2,3-c]pyridine-1,3′-furan]] cannot be ordered by Ki: less than 500 nM for the first, less than 500 nM for the second.

`C#CCOc1cccc(S(=O)(=O)c2ccc3c(c2)OC2CNCCC32)c1` (centres unmarked) [Example 549] and `Cc1cc(COc2cccc(S(=O)(=O)c3ccc4c(c3)OC3CNCCC43)c2)no1` (centres unmarked) [Example 565] cannot be ordered by Ki: less than 500 nM for the first, less than 500 nM for the second.

`CC(C)Oc1ccccc1S(=O)(=O)c1ccc2c(c1)OC1CNCCC21` (centres unmarked) [Example 419] and `CC(C)Oc1cccc(S(=O)(=O)c2ccc3c(c2)OC2CNCCC32)c1F` (centres unmarked) [Example 481] cannot be ordered by Ki: less than 500 nM for the first, less than 500 nM for the second.

`CCCCC1NCCc2c1oc1cc(S(=O)(=O)c3cccc(F)c3)ccc21` (centres unmarked) [Example 506] and `O=S(=O)(c1cccc(Cl)c1)c1ccc2c3c(oc2c1)C(CCC(F)(F)F)NCC3` (centres unmarked) [Example 522] cannot be ordered by Ki: less than 500 nM for the first, less than 500 nM for the second.

`O=S(=O)(c1cccc(OCCn2cccc2)c1)c1ccc2c(c1)OC1CNCCC21` (centres unmarked) [Example 573] and `O=S(=O)(c1cccc(OCc2ccccn2)c1)c1ccc2c(c1)OC1CNCCC21` (centres unmarked) [Example 562] cannot be ordered by Ki: less than 500 nM for the first, less than 500 nM for the second.

`CC(=O)Nc1ccc(S(=O)(=O)c2ccc3c(c2)OC2CNCCC32)cc1` (centres unmarked) [Example 140] and `O=S(=O)(c1ccccc1)c1ccc2c(c1)OC1CNCCC21` (centres unmarked) [Example 324, 7-(phenylsulfonyl)-1,2,3,4,4a,9a-hexahydro[1]benzofuro[2,3-c]pyridine] cannot be ordered by Ki: less than 500 nM for the first, less than 500 nM for the second.

Compared with `CC12CCNCC1Oc1ccc(OS(=O)(=O)Cc3ccc(F)cc3)cc12` (centres unmarked) [Example 790], `CC12CCNCC1Oc1ccc(OS(=O)(=O)Cc3cccc(C(F)(F)F)c3)cc12` (centres unmarked) [Example 788] is lower in Ki: greater than 1000 nM for the first, less than 500 nM for the second.

First: CN(C)C(=O)c1cccc(S(=O)(=O)c2ccc3c(c2)OC2CNCCC32C)c1 (centres unmarked) [Example 425]
Second: CC(C)Oc1cccc(S(=O)(=O)c2ccc3c(c2)OC2CNCCC32C)c1 (single isomer, unassigned) [Example 21, 4a-methyl-7-{[3-(propan-2-yloxy)phenyl]sulfonyl}-1,2,3,4,4a,9a-hexahydro[1]benzofuro[2,3-c]pyridine]
The Ki of the first is higher: greater than 1000 nM for the first, less than 500 nM for the second.

`O=S(=O)(Oc1ccc2c(c1)OC1CNCCC21)c1ccc(C(F)(F)F)cc1` (centres unmarked) [Example 673] and `O=S(=O)(Oc1ccc2c(c1)C1CCNCC1O2)c1cccc(C(F)(F)F)c1` (centres unmarked) [Example 737] cannot be ordered by Ki: less than 500 nM for the first, less than 500 nM for the second.

Going from `[O-][S+](c1ccc2c(c1)OC1CNCCC21)c1cc(Cl)ccc1Cl` (centres unmarked) [Example 135] to `O=S(=O)(c1ccc2c(c1)OC1CNCCC21)c1cccc(Cl)c1Cl` (centres unmarked) [Example 123], the Ki falls from greater than 1000 nM to less than 500 nM.

Compared with `O=S(=O)(Nc1cccc(F)c1)c1ccc2c(c1)C1CCNCC1O2` (centres unmarked) [Example 846], `O=S(=O)(c1cccc(Cl)c1)c1ccc2c(c1)C1CCNCC1O2` (centres unmarked) [Example 294, 6-[(3-Chlorophenyl)sulfonyl]-1,2,3,4,4a,9a-hexahydro[1]benzofuro[2,3-c]pyridine trifluoroacetic acid salt] is lower in Ki: greater than 1000 nM for the first, less than 500 nM for the second. The second binds more tightly here.

`CCOc1cc(F)cc(S(=O)(=O)c2ccc3c(c2)OC2CNCCC32C)c1` (centres unmarked) [Example 426] and `CC(C)COc1cc(F)cc(S(=O)(=O)c2ccc3c(c2)OC2CNCCC32C)c1` (centres unmarked) [Example 424] cannot be ordered by Ki: less than 500 nM for the first, less than 500 nM for the second.

Going from `COc1cc(OC)cc(S(=O)(=O)c2ccc3c(c2)OC2CNCCC32C)c1` (centres unmarked) [Example 490] to `Cc1cccc(S(=O)(=O)c2ccc3c(c2)OC2CNCCC32C)n1` (racemic) [Example 6, 4a-methyl-7-[(6-methylpyridin-2-yl)sulfonyl]-1,2,3,4,4a,9a-hexahydro[1]benzofuro[2,3-c]pyridine], the Ki rises from less than 500 nM to greater than 1000 nM.

`O=S(=O)(c1cccc(OCC2CCCCO2)c1)c1ccc2c(c1)OC1CNCCC21` (centres unmarked) [Example 553] and `O=S(=O)(c1cccc(OCc2ccncc2)c1)c1ccc2c(c1)OC1CNCCC21` (centres unmarked) [Example 561] cannot be ordered by Ki: less than 500 nM for the first, less than 500 nM for the second.

Compared with `CC12CCNCC1Oc1ccc(OS(=O)(=O)c3cccc4cccnc34)cc12` (centres unmarked) [Example 770], `Cc1cccc(S(=O)(=O)Oc2ccc3c(c2)C2CCNCC2O3)c1` (centres unmarked) [Example 699] is lower in Ki: greater than 1000 nM for the first, less than 500 nM for the second. The second binds more tightly here.

Compared with `O=S(=O)(c1ccc2c(c1)OC1CNCCC21)c1ccccn1` (centres unmarked) [Example 331], `Cc1cccc(S(=O)(=O)c2ccc3c(c2)OC2CNCCC32)n1` (centres unmarked) [Example 328] is lower in Ki: 500 to 1000 nM for the first, less than 500 nM for the second. The second binds more tightly here.

`O=S(=O)(c1ccc2c(c1)OC1CNCCC21)c1ccccc1OCC(F)(F)F` (centres unmarked) [Example 421] and `O=S(=O)(c1cccc(C(F)(F)F)c1)c1ccc2c(c1)OC1CNCCC21` (centres unmarked) [Example 126] cannot be ordered by Ki: less than 500 nM for the first, less than 500 nM for the second.

First: COc1ccc(S(=O)(=O)c2ccc3oc4c(c3c2)CCNC4C)cc1F (centres unmarked) [Example 285]
Second: CC1(C)NCCc2c1oc1ccc(S(=O)(=O)c3cccc(F)c3)cc21 [Example 42, 6-[(3-fluorophenyl)sulfonyl]-1,1-dimethyl-1,2,3,4-tetrahydro[1]benzofuro[2,3-c]pyridine]
The Ki of the first is higher: greater than 1000 nM for the first, 500 to 1000 nM for the second.

`O=S(=O)(c1ccc2c(c1)OC1CNCCC21)c1cccc(OCC2CCOCC2)c1F` (centres unmarked) [Example 482] and `O=S(=O)(c1ccc2c(c1)OC1CNCCC21)c1cccc(F)c1F` (centres unmarked) [Example 388] cannot be ordered by Ki: less than 500 nM for the first, less than 500 nM for the second.

Compared with `O=S(=O)(Oc1ccc2c(c1)OC1CNCCC21)c1ccc2c(c1)OCCO2` (centres unmarked) [Example 668], `O=S(=O)(c1ccc2c(c1)OCCO2)c1ccc2c(c1)C1CCNCC1O2` (centres unmarked) [Example 180] is higher in Ki: less than 500 nM for the first, greater than 1000 nM for the second. The first binds more tightly here.

Going from `CN(C)c1cccc(S(=O)(=O)c2ccc3oc4c(c3c2)CCNC4)c1` [Example 355] to `Cc1cccc(S(=O)(=O)c2ccc3c4c(oc3c2)CNCC4)c1` [Example 221], the Ki falls from greater than 1000 nM to less than 500 nM.

Compared with `O=S(=O)(c1ccc2c(c1)OC1CNCCC21)c1cccc2c1OC(F)(F)O2` (centres unmarked) [Example 469], `COc1ccc(F)cc1S(=O)(=O)c1ccc2c(c1)OC1CNCCC21` (centres unmarked) [Example 132] is higher in Ki: less than 500 nM for the first, greater than 1000 nM for the second. The first binds more tightly here.

`O=S(=O)(c1ccc2c(c1)OC1CNCCC21)c1ccc(Cl)c(C(F)(F)F)c1` (centres unmarked) [Example 148] and `O=S(=O)(c1cc(F)cc(F)c1)c1ccc2c(c1)OC1CNCCC21` (centres unmarked) [Example 131] cannot be ordered by Ki: less than 500 nM for the first, less than 500 nM for the second.

`CC1(C)NCCC2c3ccc(S(=O)(=O)c4cccc(F)c4)cc3OC21` (centres unmarked) [Example 624, 7-[(3-Fluorophenyl)sulfonyl]-1,1-dimethyl-1,2,3,4,4a,9a-hexahydro[1]benzofuro[2,3-c]pyridine] and `O=S(=O)(c1cncc(Cl)c1)c1ccc2c(c1)OC1CNCCC21` (centres unmarked) [Example 392] cannot be ordered by Ki: less than 500 nM for the first, less than 500 nM for the second.

Compared with `CC(=O)N1CCC2c3cc(NS(=O)(=O)c4c(Cl)nc5sccn45)ccc3OC2C1` (centres unmarked) [Example 816], `CC(=O)N1CCC2c3cc(NS(=O)(=O)c4ccc5ccccc5c4)ccc3OC2C1` (centres unmarked) [Example 814, N-(2-Acetyl-1,2,3,4,4a,9a-hexahydro[1]benzofuro[2,3-c]pyridin-6-yl)naphthalene-2-sulfonamide] is higher in Ki: 500 to 1000 nM for the first, greater than 1000 nM for the second.

Compared with `O=S(=O)(c1ccc(F)cc1)c1ccc2oc3c(c2c1)CCNC3` [Example 264], `O=S(=O)(c1ccncc1)c1ccc2c3c(oc2c1)CNCC3` [Example 344] is higher in Ki: less than 500 nM for the first, 500 to 1000 nM for the second. The first binds more tightly here.

First: N#Cc1ccc(COc2cccc(S(=O)(=O)c3ccc4c(c3)OC3CNCCC43)c2)cc1 (centres unmarked) [Example 551]
Second: O=S(=O)(Oc1ccc2c(c1)C1CCNCC1O2)c1ccc(F)c(Cl)c1 (centres unmarked) [Example 723]
The Ki of the first is lower: less than 500 nM for the first, 500 to 1000 nM for the second.

First: [O-][S+](c1ccc2c3c(oc2c1)CNCC3)c1cccnc1Cl (centres unmarked) [Example 435]
Second: CNC(=O)c1cccc(S(=O)(=O)c2ccc3c4c(oc3c2)CNCC4)c1 [Example 478]
The Ki of the first is higher: greater than 1000 nM for the first, 500 to 1000 nM for the second.

Going from `CC1(C)NCCc2c1oc1cc(S(=O)(=O)c3ccc(N4CCCC4)nc3)ccc21` [Example 380] to `O=S(=O)(Oc1ccc2c(c1)OC1CNCCC21)c1ccc(-c2ccon2)s1` (centres unmarked) [Example 680], the Ki falls from greater than 1000 nM to less than 500 nM.

`Cc1cc(C)c(S(=O)(=O)Oc2ccc3c(c2)OC2CNCCC32)c(C)c1` (centres unmarked) [Example 656] and `O=S(=O)(Oc1ccc2c(c1)OC1CNCCC21)c1c(Cl)nc2sccn12` (centres unmarked) [Example 638] cannot be ordered by Ki: less than 500 nM for the first, less than 500 nM for the second.

`O=S(=O)(NC1CCCCC1)c1ccc2c(c1)C1CCNCC1O2` (centres unmarked) [Example 849, N-cyclohexy1-1,2,3,4,4a,9a-hexahydro[1]benzofuro[2,3-c]pyridine-6-sulfonamide] showed a Ki greater than 1000 nM.
